# Where a name gives a salt, the structure may show the parent alone. Read-outs that look alike come from different tables or passages of the source.
# Experiments:
# [1] = In-vitro cleavage of allopurinol derivatives to allopurinol in pH 7.4 buffer at 37° C; format: physicochemical; settings: read-out: Half-time (t0.5) of the conversion to allopurinol, pH 7.4 buffer (converted)
# Method: (§1) In-vitro cleavage of allopurinol derivatives
# (§2) Solutions of various derivatives of allopurinol in aqueous buffer solutions or 80% human plasma solutions (pH 7.4) were kept at 37° C. The initial concentration of the derivatives was in the range 0.01-0.1 mg/ml. At various times an aliquot of the solutions was withdrawn and analyzed by HPLC for remaining derivative as well as for allopurinol. For the plasma solutions the aliquot withdrawn was deproteinized with ethanol or trichloroacetic acid and after centrifugation, the clear supernatant was injected on HPLC.
# (§3) An HPLC method was used for the determination of allopurinol and its derivatives. In this method a reversed-phase LiChrosorb RP-8 column (250×4 mm) was eluated at ambient temperature with mixtures of methanol and 0.01M acetate buffer pH 4.5 or methanol and 0.03M phosphate buffer pH 7.0. The composition of the eluant was adjusted for each compound in order to provide an appropriate retention time. The flow rate was 1.2 ml/min and the column effluent was monitored spectrophotometrically at 252 nm or 274 nm. Quantitation of the compounds was done by measurement of peak heights.
# (§4) The half-times of allopurinol formation from various derivatives at physiological conditions of pH and temperature are given in Table 2. It can be seen that in the presence of human plasma the rate of degradation is strongly accelerated, thus showing the susceptibility of the derivatives to undergo conversion into the parent active compound at conditions simiar to those prevailing in vivo.
# [2] = In-vitro cleavage of allopurinol derivatives to allopurinol in 80% human plasma (pH 7.4) at 37° C; format: in vitro ADME; settings: 80% plasma, pH 7.4, 37° C, read-out: Half-time (t0.5) of the conversion to allopurinol, 80% human plasma (converted)
# Method: as §1, §2, §3, §4
# [3] = physchem; settings: for solubility: water
# Method: (§5) The water-solubility and lipophilicity of the allopurinol drugs
# (§6) The apparent partition coefficients (P) for some allopurinol derivatives and allopurinol were measured using the widely used 1-octanol-water system. Similarly, the solubility of the derivatives in water or aqueous buffer solutions was determined.
# [4] = test system: healthy human volunteer; experiment: Rectal micro-enema in a healthy human volunteer, urinary excretion; format: in vivo; settings: 100 mg allopurinol equivalents
# Method: The dose given (2 ml of a 0.5% methylcellulose solution containing 118 mg/ml of the prodrug) corresponded to 100 mg of allopurinol. Urine was collected over 5 days and aliquots were assayed for allopurinol and oxipurinol by a specific HPLC assay.
# [5] = test system: rabbits; experiment: Intravenous administration to four rabbits, plasma levels; format: in vivo, rabbit; settings: i.v., 25 mg allopurinol equivalents
# [6] = Method: as §5, §6
# [7] = sodium salt of allopurinol at 0.5-1%; cited from earlier work
# [8] = in vivo; cited from earlier work
Structure (SMILES),half-life [1],half-life [2],solubility [3],log P [6],other results
CCN(CC)CC(=O)OCn1ncc2c(=O)[nH]cnc21,49 min,10 min,> 500 mg/mL,–,"aqueous solubility relative to the parent compound (factor) [3]: 5,000; bioavailability of the parent drug from the prodrug given rectally [4]: virtually complete bioavailability; bioavailability of the parent drug from the prodrug given intravenously [5]: almost complete bioavailability"
CC(N)C(=O)OCn1ncc2c(=O)[nH]cnc21 (racemic) [1-(DL-Alanyloxymethyl)allopurinol (hydrobromide)],15 min,11 min,> 500 mg/mL,–,–
"CCN(CC)C(C)C(=O)OCn1ncc2c(=O)[nH]cnc21 (racemic) [1-(DL-N,N-Diethylalanyloxymethyl)allopurinol (hydrochloride)]",21 min,17 min,> 400 mg/mL,–,log P ([6]; pH 8): 0.72
"NC(Cc1ccccc1)C(=O)OCn1ncc2c(=O)[nH]cnc21 (racemic) [1-(DL-Phenylalanyloxymethyl)allopurinol, 1-(DL-Phenylalanyloxymethyl)allopurinol (hydrobromide)]",40 min,9 min,> 200 mg/mL,–,log P ([6]; pH 8): 0.40
"NC(C(=O)OCn1ncc2c(=O)[nH]cnc21)c1ccccc1 (racemic) [1-(DL-Phenylglycyloxymethyl)allopurinol, 1-(DL-Phenylglycyloxymethyl)allopurinol (hydrobromide)]",20 min,3 min,> 200 mg/mL,–,log P ([6]; pH 8): -0.15
"CC(N)C(=O)OCn1cc2c(=O)n(COC(=O)C(C)N)cnc2n1 (racemic) [2,5-bis(DL-Alanyloxymethyl)allopurinol, 2,5-bis-(DL-Alanyloxymethyl)allopurinol (dihydrobromide)]",< 1 min,< 1 min,–,–,–
"CCCC(=O)OCn1cnc2c(cnn2COC(=O)CCC)c1=O [1,5-bis(Butyryloxymethyl)allopurinol]",1500 min,22 min,0.05 mg/mL,1.82,–
"CC(C)(C)C(=O)OCn1cnc2c(cnn2COC(=O)C(C)(C)C)c1=O [1,5-bis(Pivaloyloxymethyl)allopurinol]",–,–,0.02 mg/mL,2.50,–
"CC(=O)OCn1ncc2c(O)ncnc21 [1-(Acetoxymethyl)allopurinol, 1-(Acetyloxymethyl)allopurinol]",5220 min,31 min,0.58 mg/mL,-0.35,–
CC(=O)n1ncc2c(O)ncnc21 [1-(Acetyl)allopurinol],26 min,6 min,0.75 mg/mL,-0.35,–
O=C(c1ccccc1)n1ncc2c(=O)[nH]cnc21 [1-(Benzoyl)allopurinol],20 min,4 min,–,1.20,–
O=C(OCn1ncc2c(=O)[nH]cnc21)c1ccccc1 [1-(Benzoyloxymethyl)allopurinol],14200 min,4 min,–,1.50,–
CCCC(=O)n1ncc2c(O)ncnc21 [1-(Butyryl)allopurinol],36 min,2.5 min,0.11 mg/mL,0.85,–
CCCC(=O)OCn1ncc2c(=O)[nH]cnc21 [1-(Butyryloxymethyl)allopurinol],11600 min,9 min,–,0.60,–
O=C(CCl)n1ncc2c(=O)[nH]cnc21 [1-(Chloroacetyl)allopurinol],< 1 min,< 1 min,–,–,–
CCOC(=O)OCn1ncc2c(O)ncnc21 [1-(Ethoxycarbonyloxymethyl)allopurinol],–,20 min,–,0.21,–
"NCC(=O)OCn1ncc2c(=O)[nH]cnc21 [1-(Glycyloxymethyl)allopurinol, 1-(Glycyloxymethyl)allopurinol (hydrochloride)]",26 min,9 min,> 500 mg/mL,–,–

Structure (SMILES),half-life [1],half-life [2],solubility [3],log P [6],other results
"CC(C)C[C@H](N)C(=O)OCn1ncc2c(=O)[nH]cnc21 [1-(L-Leucyloxymethyl)allopurinol, 1-(L-Leucyloxymethyl)allopurinol (hydrobromide)]",17 min,6 min,> 400 mg/mL,–,log P ([6]; pH 8): 0.19
"CN(C)CC(=O)n1ncc2c(=O)[nH]cnc21 [1-(N,N--Dimethylglycyl)allopurinol, 1-(N,N-Dimethylglycyl)allopurinol (hydrochloride)]",1.5 min,< 1 min,> 200 mg/mL,–,–
"CN(C)CC(=O)OCn1ncc2c(=O)[nH]cnc21 [1-(N,N-Dimethylglycyloxymethyl)allopurinol (hydrochloride)]",72 min,7 min,> 500 mg/mL,–,log P ([6]; pH 8): -0.49
"CCCN(CCC)CC(=O)OCn1ncc2c(=O)[nH]cnc21 [1-(N,N-Dipropylglycyloxymethyl)allopurinol (hydrochloride)]",50 min,12 min,> 400 mg/mL,–,log P ([6]; pH 8): 1.27
"CCCCNC(=O)n1ncc2c(=O)[nH]cnc21 [1-(N--Butylcarbamoyl)allopurinol, 1-(N-Butylcarbamoyl)allopurinol]",–,90 min,–,–,–
O=C(OCn1ncc2c(=O)[nH]cnc21)c1cccnc1 [1-(Nicotinoyloxymethyl)allopurinol],1560 min,21 min,0.093 mg/mL,0.27,–
CC(C)(C)C(=O)OCn1ncc2c(O)ncnc21 [1-(Pivaloyloxymethyl)allopurinol],–,–,0.52 mg/mL,1.07,–
CCC(=O)n1ncc2c(O)ncnc21 [1-(Propionyl)allopurinol],30 min,4 min,0.3 mg/mL,0.30,–
"CCN(CC)C(=O)CCC(=O)OCn1ncc2c(O)ncnc21 [1-[3-(N,N-Diethylcarbamoyl)propionyloxymethyl]allopurinol]",4860 min,504 min,33 mg/mL,-0.22,–
"CN(C)CCCC(=O)OCn1ncc2c(=O)[nH]cnc21 [1-[4-(N,N-Dimethylamino)butyryloxymethyl]allopurinol (hydrochloride)]",145 min,140 min,–,–,–
"CC(=O)OCn1cc2c(=O)n(COC(C)=O)cnc2n1 [2,5-bis(Acetoxymethyl)allopurinol]",900 min,51 min,2.9 mg/mL,–,–
"CCCC(=O)OCn1cc2c(=O)n(COC(=O)CCC)cnc2n1 [2,5-bis(Butyryloxymethyl)allopurinol]",2100 min,32 min,0.094 mg/mL,1.60,–
"CC(C)(C)C(=O)OCn1cc2c(=O)n(COC(=O)C(C)(C)C)cnc2n1 [2,5-bis(Pivaloyloxymethyl)allopurinol]",–,–,–,2.34,–
CCCC(=O)OCn1cc2c(=O)[nH]cnc2n1 [2-(Butyryloxymethyl)allopurinol],3240 min,22 min,1.5 mg/mL,0.33,–
"CC(C)(C)C(=O)OCn1cc2c(=O)[nH]cnc2n1 [2-(Pivaloyloxymethyl)allopurinol, 2-(pivaloyloxymethyl)allopurinol]",–,–,1.7 mg/mL,0.79,–
Oc1ncnc2[nH]ncc12 [sodium salt of allopurinol],–,–,–,–,pH of infusion fluids [7]: 10.5-11.5; adverse effects of administration of infusion fluids [8]: may cause thrombophlebitis or perivascular inflammation
